Laboratory results as given in patent publication US9688653B2, “Ethoxyphenyl thienyl compounds and methods for the treatment of bacterial infections” (Duke University, priority 2013, dated 2017).
“Also recorded” adds a separate entry of the source.

Tests used:
panel of 68 receptors [1] = target: panel of 68 receptors (Homo sapiens, UniProt P03372); conditions: Estrogen ERα, hum, 10 μM
panel of 68 receptors [2] = target: panel of 68 receptors (Homo sapiens, UniProt P04150); conditions: Glucocorticoid, hum, 10 μM
panel of 68 receptors [3] = target: panel of 68 receptors (Homo sapiens, UniProt P07550); conditions: Adrenergic β2, hum, 10 μM
panel of 68 receptors [4] = target: panel of 68 receptors (Homo sapiens, UniProt P08172); conditions: Muscarinic M2, hum, 10 μM
panel of 68 receptors [5] = target: panel of 68 receptors (Homo sapiens, UniProt P0DMS8); conditions: Adenosine A3, hum, 10 μM
panel of 68 receptors [6] = target: panel of 68 receptors (Homo sapiens, UniProt P11229); conditions: Muscarinic M1, hum, 10 μM
panel of 68 receptors [7] = target: panel of 68 receptors (Homo sapiens, UniProt P24530); conditions: Endothelin ETB, hum, 10 μM
panel of 68 receptors [8] = target: panel of 68 receptors (Homo sapiens, UniProt P25101); conditions: Endothelin ETA, hum, 10 μM
panel of 68 receptors [9] = target: panel of 68 receptors (Homo sapiens, UniProt P25103); conditions: Tachykinin NK1, hum, 10 μM
panel of 68 receptors [10] = target: panel of 68 receptors (Homo sapiens, UniProt P25105); conditions: Platelet Activating Factor (PAF), hum, 10 μM
panel of 68 receptors [11] = target: panel of 68 receptors (Homo sapiens, UniProt P29274); conditions: Adenosine A2A, hum, 10 μM
panel of 68 receptors [12] = target: panel of 68 receptors (Homo sapiens, UniProt P31645); conditions: Transporter, Serotonin (5-Hydroxytryptamine) (SERT), hum, 10 μM
panel of 68 receptors [13] = target: panel of 68 receptors (Homo sapiens, UniProt P35372); conditions: Opiate μ(OP3, MOP), hum, 10 μM
panel of 68 receptors [14] = target: panel of 68 receptors (Homo sapiens, UniProt P35408); conditions: Prostanoid EP4, hum, 10 μM
panel of 68 receptors [15] = target: panel of 68 receptors (Homo sapiens, UniProt P35462); conditions: Dopamine D3, hum, 10 μM
panel of 68 receptors [16] = target: panel of 68 receptors (Homo sapiens, UniProt P46663); conditions: Bradykinin B1, hum, 10 μM
panel of 68 receptors [17] = target: panel of 68 receptors (Homo sapiens, UniProt P48039); conditions: Melatonin MT1, hum, 10 μM
panel of 68 receptors [18] = target: panel of 68 receptors (Homo sapiens, UniProt Q99720); conditions: Sigma σ1, hum, 10 μM
panel of 68 receptors [19] = target: panel of 68 receptors (Homo sapiens, UniProt Q9UBS5); conditions: GABAB1A, hum, 10 μM
panel of 68 receptors [20] = target: panel of 68 receptors (Homo sapiens, UniProt Q9Y271); conditions: Leukotriene, Cysteinyl CysLT1, hum, 10 μM
panel of 68 receptors [21] = target: panel of 68 receptors (Homo sapiens, UniProt Q9Y5N1); conditions: Histamine H3, hum, 10 μM
panel of 68 receptors [22] = target: panel of 68 receptors (Mus musculus, UniProt P13504); conditions: Interleukin IL-1, mouse, 10 μM
Plasma stability, mouse = assay type: in vitro ADME; conditions: 1:1 Plasma:PBS, 37° C.
E. coli UTI89 = assay: Murine UPEC sepsis model; assay type: in vivo
Method: Murine UPEC sepsis model and treatment with DU011. Groups of five 6-7 week old C57BL/6NCr female mice (purchased from Frederick National Laboratory for Cancer Research) were injected subcutaneously twice daily with 100 μL of 1% DMSO (vehicle control) or DU011 (1 mg/ml) starting 12 hrs prior to the intra peritoneal infection. Weights were recorded twice daily to monitor health of the animals and tolerance to the compound. Mice were challenged by intraperitoneal injection with 10^8 CFU of the indicated E. coli UTI89 in 100 μL of PBS. Briefly, cultures were prepared by diluting overnight cultures (18 hrs) 1:100 into 3 mL of LB supplemented with 1% DMSO final or 100 μM DU011 (1% DMSO final). Shaken cultures were grown at 37° C. for 6 hours to an OD600 of 1.2, and then cells were pelleted and resuspended in 1 mL of PBS. Absorbance was adjusted to OD600 of 0.8 in PBS, and the cultures were then diluted 1:10 in sterile PBS Animals were also given an intraperitoneal dose of 1% DMSO or DU011, in a site different than the administration of bacteria, to ensure sufficient systemic delivery of drug. Animal survival was assessed after 12 hours. Surviving mice were re-dosed according to the treatment groups and continued to be monitored. The experiment was concluded 48 hours post infection. The entire experiment was repeated with similar results.
Throughout each experiment, animals were monitored each 6 hours from the time of infection until conclusion for serious morbidity, including ruffled fur, decreased activity, slowed respirations, and ill appearance. Animals were provided gel packs for easily accessible additional hydration throughout the experiments. When a moribund state was suspected or anticipated by these criteria, animals were immediately euthanized to minimize potential pain and/or suffering. Of the total animals with an outcome categorized as death, the following numbers were euthanized for terminal morbidity prior to septic death (euthanized/total deaths): 3/10, no prior treatment; 3/5 prior chemical treatment of bacteria alone; 0/2 prior chemical treatment of mice alone. Euthanasia for all animals was through complete respiratory cessation using the inhaled anesthetic isoflurane followed by secondary assurance of death using bilateral thoracotomy. All animal experiments were conducted with prior approval from the Institutional Animal Care and Use Committee of Duke University.

[23] = pre-treatment of bacteria without pretreatment of the mice

panel of 68 receptors (Homo sapiens, UniProt P24530), sequence (P24530 27-442): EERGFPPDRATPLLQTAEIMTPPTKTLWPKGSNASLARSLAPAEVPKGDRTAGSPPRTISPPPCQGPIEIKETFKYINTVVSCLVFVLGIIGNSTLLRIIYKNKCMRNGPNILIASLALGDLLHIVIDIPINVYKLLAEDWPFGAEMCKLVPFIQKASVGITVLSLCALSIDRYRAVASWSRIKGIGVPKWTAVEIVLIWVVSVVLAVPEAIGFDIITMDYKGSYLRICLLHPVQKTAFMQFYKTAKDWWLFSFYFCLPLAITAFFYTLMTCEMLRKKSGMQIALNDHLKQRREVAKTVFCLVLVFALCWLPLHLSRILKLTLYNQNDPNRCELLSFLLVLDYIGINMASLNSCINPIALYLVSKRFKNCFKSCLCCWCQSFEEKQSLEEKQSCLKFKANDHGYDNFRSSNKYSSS
panel of 68 receptors (Homo sapiens, UniProt P29274), sequence (P29274 whole entry): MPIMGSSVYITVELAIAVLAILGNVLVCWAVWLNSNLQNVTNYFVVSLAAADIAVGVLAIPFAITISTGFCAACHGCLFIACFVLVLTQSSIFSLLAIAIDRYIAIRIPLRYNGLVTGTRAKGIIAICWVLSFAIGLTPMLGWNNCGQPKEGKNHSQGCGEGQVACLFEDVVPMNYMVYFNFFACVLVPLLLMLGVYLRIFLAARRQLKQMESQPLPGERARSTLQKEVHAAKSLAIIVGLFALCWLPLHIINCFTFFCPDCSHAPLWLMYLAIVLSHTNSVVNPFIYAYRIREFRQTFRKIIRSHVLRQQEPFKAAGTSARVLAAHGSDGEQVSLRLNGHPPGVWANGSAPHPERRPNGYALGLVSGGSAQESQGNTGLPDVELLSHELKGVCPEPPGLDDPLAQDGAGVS
panel of 68 receptors (Homo sapiens, UniProt Q99720), sequence (Q99720 whole entry): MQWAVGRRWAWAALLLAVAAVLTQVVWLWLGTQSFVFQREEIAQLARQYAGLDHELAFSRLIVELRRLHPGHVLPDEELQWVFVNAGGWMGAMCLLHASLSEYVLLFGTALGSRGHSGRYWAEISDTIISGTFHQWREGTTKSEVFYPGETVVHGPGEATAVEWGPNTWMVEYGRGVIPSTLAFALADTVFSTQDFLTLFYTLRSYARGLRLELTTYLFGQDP
panel of 68 receptors (Homo sapiens, UniProt Q9Y5N1), sequence (Q9Y5N1 whole entry): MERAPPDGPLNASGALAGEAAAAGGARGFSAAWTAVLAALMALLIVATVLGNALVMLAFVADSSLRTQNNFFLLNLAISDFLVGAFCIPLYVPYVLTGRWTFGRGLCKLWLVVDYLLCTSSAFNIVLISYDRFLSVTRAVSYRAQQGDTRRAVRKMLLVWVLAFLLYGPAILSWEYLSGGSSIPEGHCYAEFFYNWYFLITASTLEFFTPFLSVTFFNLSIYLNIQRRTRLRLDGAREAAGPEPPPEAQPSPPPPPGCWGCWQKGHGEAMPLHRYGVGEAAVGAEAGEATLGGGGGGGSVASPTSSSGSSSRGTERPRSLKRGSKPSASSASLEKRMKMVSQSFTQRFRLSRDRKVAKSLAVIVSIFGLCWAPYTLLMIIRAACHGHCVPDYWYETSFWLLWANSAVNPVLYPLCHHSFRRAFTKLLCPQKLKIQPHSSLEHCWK
panel of 68 receptors (Homo sapiens, UniProt Q9UBS5), sequence (Q9UBS5 20-961): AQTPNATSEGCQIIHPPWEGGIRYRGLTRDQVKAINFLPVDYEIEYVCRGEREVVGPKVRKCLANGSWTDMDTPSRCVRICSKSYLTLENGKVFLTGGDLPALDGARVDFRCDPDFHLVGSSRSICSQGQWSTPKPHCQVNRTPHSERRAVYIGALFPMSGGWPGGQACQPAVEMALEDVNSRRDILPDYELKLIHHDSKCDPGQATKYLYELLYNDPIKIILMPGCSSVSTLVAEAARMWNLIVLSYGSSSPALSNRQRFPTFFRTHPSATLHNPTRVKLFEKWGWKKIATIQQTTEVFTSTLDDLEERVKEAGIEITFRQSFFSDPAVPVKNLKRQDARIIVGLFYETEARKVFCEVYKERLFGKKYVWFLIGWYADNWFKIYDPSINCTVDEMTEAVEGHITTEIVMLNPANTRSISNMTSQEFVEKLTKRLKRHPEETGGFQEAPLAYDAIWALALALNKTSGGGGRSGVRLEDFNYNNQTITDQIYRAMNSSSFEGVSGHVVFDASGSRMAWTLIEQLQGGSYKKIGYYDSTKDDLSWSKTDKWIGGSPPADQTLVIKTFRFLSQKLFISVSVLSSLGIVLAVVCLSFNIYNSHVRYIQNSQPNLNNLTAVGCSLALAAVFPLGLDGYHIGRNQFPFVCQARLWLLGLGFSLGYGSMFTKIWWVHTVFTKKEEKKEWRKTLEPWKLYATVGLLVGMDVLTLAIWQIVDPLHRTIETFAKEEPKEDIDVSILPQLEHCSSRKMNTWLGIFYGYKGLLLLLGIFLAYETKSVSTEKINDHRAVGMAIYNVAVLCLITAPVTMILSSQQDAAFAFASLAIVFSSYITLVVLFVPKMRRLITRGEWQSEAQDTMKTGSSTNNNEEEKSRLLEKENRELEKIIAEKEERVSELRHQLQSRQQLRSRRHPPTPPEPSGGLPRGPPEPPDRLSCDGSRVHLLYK
panel of 68 receptors (Mus musculus, UniProt P13504), sequence (P13504 20-576): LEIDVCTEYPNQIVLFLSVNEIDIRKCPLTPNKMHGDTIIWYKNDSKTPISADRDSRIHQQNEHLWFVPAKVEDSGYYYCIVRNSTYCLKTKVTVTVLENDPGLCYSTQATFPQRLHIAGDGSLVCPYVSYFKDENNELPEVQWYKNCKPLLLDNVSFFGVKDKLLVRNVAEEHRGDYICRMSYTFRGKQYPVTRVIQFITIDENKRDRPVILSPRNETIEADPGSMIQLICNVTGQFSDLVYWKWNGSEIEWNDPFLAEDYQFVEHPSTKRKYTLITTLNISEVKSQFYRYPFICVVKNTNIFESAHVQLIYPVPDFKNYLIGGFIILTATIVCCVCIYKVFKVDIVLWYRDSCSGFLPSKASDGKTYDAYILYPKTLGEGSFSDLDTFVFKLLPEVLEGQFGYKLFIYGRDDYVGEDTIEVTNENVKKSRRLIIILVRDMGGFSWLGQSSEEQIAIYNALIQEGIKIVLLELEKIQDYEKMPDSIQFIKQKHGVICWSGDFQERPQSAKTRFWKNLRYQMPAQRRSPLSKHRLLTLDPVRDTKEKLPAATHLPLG
panel of 68 receptors (Homo sapiens, UniProt P35372), sequence (P35372 whole entry): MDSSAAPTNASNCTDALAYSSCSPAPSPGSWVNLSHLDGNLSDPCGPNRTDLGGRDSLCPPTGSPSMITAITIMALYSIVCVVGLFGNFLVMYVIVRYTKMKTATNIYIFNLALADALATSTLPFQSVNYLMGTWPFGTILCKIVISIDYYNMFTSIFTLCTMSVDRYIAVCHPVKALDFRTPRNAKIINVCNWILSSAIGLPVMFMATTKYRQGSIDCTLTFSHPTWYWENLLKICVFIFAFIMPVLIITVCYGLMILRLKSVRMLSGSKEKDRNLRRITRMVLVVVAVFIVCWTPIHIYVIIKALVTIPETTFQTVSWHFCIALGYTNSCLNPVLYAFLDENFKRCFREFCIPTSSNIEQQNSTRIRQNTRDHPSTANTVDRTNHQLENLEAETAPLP
panel of 68 receptors (Homo sapiens, UniProt P0DMS8), sequence (P0DMS8 whole entry): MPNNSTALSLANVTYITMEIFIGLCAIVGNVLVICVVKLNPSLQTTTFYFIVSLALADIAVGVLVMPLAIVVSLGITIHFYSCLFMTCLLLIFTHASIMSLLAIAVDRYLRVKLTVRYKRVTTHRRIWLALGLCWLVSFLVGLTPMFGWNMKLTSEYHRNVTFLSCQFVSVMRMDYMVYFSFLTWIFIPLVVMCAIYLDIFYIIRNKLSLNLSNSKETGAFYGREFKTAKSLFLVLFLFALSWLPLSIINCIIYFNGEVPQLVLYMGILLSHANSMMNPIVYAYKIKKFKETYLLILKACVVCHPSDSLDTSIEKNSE
panel of 68 receptors (Homo sapiens, UniProt P46663), sequence (P46663 whole entry): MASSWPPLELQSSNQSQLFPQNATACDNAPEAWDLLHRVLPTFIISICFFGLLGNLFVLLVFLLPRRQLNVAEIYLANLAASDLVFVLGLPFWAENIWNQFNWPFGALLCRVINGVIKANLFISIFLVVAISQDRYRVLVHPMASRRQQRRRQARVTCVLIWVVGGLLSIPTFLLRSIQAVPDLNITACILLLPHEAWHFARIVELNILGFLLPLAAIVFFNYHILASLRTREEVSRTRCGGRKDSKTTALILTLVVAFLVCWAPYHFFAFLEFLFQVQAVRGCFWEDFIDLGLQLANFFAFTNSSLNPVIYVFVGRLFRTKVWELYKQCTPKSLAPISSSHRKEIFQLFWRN
panel of 68 receptors (Homo sapiens, UniProt P25103), sequence (P25103 whole entry): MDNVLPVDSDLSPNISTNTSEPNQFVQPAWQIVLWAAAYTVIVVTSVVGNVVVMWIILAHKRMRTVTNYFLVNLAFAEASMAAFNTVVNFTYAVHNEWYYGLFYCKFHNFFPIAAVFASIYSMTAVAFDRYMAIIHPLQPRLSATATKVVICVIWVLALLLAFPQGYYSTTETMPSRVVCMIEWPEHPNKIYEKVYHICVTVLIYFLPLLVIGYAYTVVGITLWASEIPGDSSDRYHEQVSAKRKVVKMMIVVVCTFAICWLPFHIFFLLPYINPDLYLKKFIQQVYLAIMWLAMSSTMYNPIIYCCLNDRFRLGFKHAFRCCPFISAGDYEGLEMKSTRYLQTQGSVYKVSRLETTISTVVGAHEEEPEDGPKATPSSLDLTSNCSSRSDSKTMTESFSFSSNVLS
panel of 68 receptors (Homo sapiens, UniProt P35462), sequence (P35462 whole entry): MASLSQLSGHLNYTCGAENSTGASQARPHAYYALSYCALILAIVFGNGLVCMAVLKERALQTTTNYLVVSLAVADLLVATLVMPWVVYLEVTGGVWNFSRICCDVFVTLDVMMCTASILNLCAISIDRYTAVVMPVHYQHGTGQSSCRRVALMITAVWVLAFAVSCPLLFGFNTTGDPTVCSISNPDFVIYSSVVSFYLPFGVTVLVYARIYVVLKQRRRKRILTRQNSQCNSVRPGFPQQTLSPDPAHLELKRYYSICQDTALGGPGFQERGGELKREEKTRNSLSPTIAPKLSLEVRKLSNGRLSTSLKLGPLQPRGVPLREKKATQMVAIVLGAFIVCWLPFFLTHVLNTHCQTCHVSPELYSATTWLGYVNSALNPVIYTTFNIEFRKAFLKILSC

Compound: CCOc1ccc(-c2cc(NC(=O)c3c(F)cccc3F)c(C(=O)O)s2)cc1 [KUC107784N-02]
- % Inh. (panel of 68 receptors [1]): 9%
- % Inh. (panel of 68 receptors [2]): −2%
- % Inh. (panel of 68 receptors [3]): 3%
- % Inh. (panel of 68 receptors [4]): −8%
- % Inh. (panel of 68 receptors [5]): 29%
- % Inh. (panel of 68 receptors [6]): 1%
- % Inh. (panel of 68 receptors [7]): 3%
- % Inh. (panel of 68 receptors [8]): 8%
- % Inh. (panel of 68 receptors [9]): 7%
- % Inh. (panel of 68 receptors [10]): 4%
- % Inh. (panel of 68 receptors [11]): 19%
- % Inh. (panel of 68 receptors [12]): 8%
- % Inh. (panel of 68 receptors [13]): 3%
- % Inh. (panel of 68 receptors [14]): −4%
- % Inh. (panel of 68 receptors [15]): 4%
- % Inh. (panel of 68 receptors [16]): 3%
- % Inh. (panel of 68 receptors [17]): 3%
- % Inh. (panel of 68 receptors [18]): 5%
- % Inh. (panel of 68 receptors [19]): 5%
- % Inh. (panel of 68 receptors [20]): 0%
- % Inh. (panel of 68 receptors [21]): 14%
- % Inh. (panel of 68 receptors [22]): 3%

Compound: CCOc1ccc(-c2cc(NC(=O)c3c(F)cccc3F)c(C(=O)O)s2)cc1 [ML317, 3-(2,6-difluorobenzamido)-5-(4-ethoxyphenyl)thiophene-2-carboxylic acid]
- Plasma Stability, % remaining at 3 hr (Plasma stability, mouse): 78.4 % remaining
- Tolerability in mice (E. coli UTI89; 100 μL of 1 mg/ml subcutaneously twice daily, listed as DU011): without evident side effects; also recorded: no detectable adverse effects
- Body weight (E. coli UTI89; [23]): ongoing weight loss
- Survival (E. coli UTI89; [23]): 50%
- Body weight (E. coli UTI89; pretreatment of the bacteria and mice with DU011): recovery of pre-infection weights
- Survival (E. coli UTI89; pretreatment of the bacteria and mice with DU011, 10^8 CFU UTI89 intraperitoneal, 48 hrs): 100%
- Body weight (E. coli UTI89; subcutaneous DU011 and untreated UTI89): stabilization of weights
- Survival (E. coli UTI89; subcutaneous DU011 and untreated UTI89, 48 hrs): 80%
